melting point: 267 °C
Compound: O=C1NC(O)=C(C(=O)c2ccccc2)C(c2ccccc2)N1 (stereo not shown) [Compound 7, 5-benzoyl-6-hydroxy-4-phenyl-3,4-dihydropyrimidin-2(1H)-one]
